Measured values published in PMC11375437, “Selective labelling of GBA2 in cells with fluorescent β-D-arabinofuranosyl cyclitol aziridines” (Chemical Science, 2024).

Target: T1, GBA2 (Homo sapiens, UniProt Q9HCG7)
T1 sequence (Q9HCG7 1-927): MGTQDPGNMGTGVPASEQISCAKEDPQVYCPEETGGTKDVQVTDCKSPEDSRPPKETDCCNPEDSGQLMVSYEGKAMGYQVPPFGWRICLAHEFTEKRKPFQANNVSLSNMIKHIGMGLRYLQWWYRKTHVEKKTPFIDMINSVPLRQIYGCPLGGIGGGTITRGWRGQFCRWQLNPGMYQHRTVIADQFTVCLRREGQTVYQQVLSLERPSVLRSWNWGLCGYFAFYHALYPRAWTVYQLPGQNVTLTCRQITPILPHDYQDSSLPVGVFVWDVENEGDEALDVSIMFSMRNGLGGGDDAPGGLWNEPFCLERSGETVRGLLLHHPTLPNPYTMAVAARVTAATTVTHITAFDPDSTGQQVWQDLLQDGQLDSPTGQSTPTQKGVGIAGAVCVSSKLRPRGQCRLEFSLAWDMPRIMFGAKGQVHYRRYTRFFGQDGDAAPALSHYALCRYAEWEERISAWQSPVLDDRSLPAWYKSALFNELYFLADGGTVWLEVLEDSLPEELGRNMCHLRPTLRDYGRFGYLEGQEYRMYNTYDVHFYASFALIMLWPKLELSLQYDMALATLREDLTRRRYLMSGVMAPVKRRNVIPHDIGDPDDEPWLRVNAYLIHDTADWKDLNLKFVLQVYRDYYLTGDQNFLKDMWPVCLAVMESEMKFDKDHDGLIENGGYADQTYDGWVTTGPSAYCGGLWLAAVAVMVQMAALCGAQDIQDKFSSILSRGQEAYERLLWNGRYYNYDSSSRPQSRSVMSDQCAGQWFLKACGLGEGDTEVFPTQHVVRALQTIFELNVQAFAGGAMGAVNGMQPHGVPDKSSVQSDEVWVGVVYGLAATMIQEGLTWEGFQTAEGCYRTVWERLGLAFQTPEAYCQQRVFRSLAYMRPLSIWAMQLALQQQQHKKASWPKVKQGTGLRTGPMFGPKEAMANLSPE
Test: In situ labelling/inactivation in intact HEK293T cells (endogenous GBA1, GBA2/GBA3 OE)
Format: cell-based
Set-up: expressed in transfected cells; host or cells: HEK293T GBA1/GBA2 KO (CRISPR/Cas9), GBA2 overexpressed
Conditions: ESI Fig. S8B (24 h incubation)
Description: We next sought to investigate whether we could identify and localize active GBA2 molecules in human cells using our β-D-Araf aziridine ABPs. […] The lysates were then denatured, their protein content separated by SDS-PAGE and the resulting wet gel slabs scanned for fluorescence. Following this procedure, we observed that all three β-D-Araf ABPs 3–5 enter intact cells, where they react with GBA2, and given the enzyme lifetime (>24 h), also with newly synthesized GBA2 (Fig. 5A, ESI Fig. S8A and B ^†).
Figure S7. Fluorescent gel images of in situ labelling of intact HEK293T cells (GBA1 endogenous and GBA2/GBA3 OE) by arabinofuranosyl cyclitol configured ABPs 3-5, 14 and 20 after 1 h incubation. GAA = Lysosomal α glucosidase (EC 3.2.1.20, CAZy GH31).
Figure S8. […] Intact HEK293T cells were treated with β-D-Araf ABPs for 24 h at 37 °C with 7% CO2, then cells were collected and lysed for labelling studies with or without residual β-glucosidases activity read out. […]
2.8 β-Glucosidase inactivation visualized by competitive ABPP with SDS-PAGE In general, samples containing GBA1, GBA2 or GBA3 (see the exact constitution of these samples in the described case) are first incubated (in vitro or in situ) with the inactivator compounds, subsequently, the fluorescent readout ABPs were added and incubated with the mixture to reveal the residual active β-glucosidase enzymes. […]

SMILES	Concentration at which GBA2 is inactivated almost completely in intact cells
CC1=CC(C)=[N+]2C1=C(CCCCc1cn(CCCCCCCCN3[C@@H]4[C@H](CO)[C@@H](O)[C@H](O)[C@@H]43)nn1)c1c(C)cc(C)n1[B-]2(F)F (some centres unmarked) [ABP 3]	100 nM
COc1ccc(C2=[N+]3C(=C(CCCCc4cn(CCCCCCCCN5[C@@H]6[C@H](CO)[C@@H](O)[C@H](O)[C@@H]65)nn4)c4ccc(-c5ccc(OC)cc5)n4[B-]3(F)F)C=C2)cc1 (some centres unmarked) [ABP 4]	100 nM
